Measurements published in patent publication US20130296363A1, “QUINOLINE AND ISOQUINOLINE DERIVATIVES FOR USE AS JAK MODULATORS” (AMBIT BIOSCIENCES CORPORATION, priority 2010, published 2013).

Key:
[1] = tested on: GM-CSFR/JAK2/STAT5 pathway in CSTF-1 cells; test: CSTF-1 cell-based reporter assay (beta-lactamase reporter, GM-CSF stimulated); conditions: Homo sapiens, GM-CSF at 2 ng/mL, 4 hours, read-out: Cell Assay: CS TF-1 reporter assay IC50
Experimental: CSTF-1 cells are derived from the human erythroleukemia cell line that is growth dependent on GM-CSF and has an intact GM-CSFR/JAK2/STAT5 pathway. The cell line contains stably integrated beta-lactamase reporter gene under the control of the […] (irf 1) response element recognized by the activated transcription factor STAT5. csTF-1 cells (Invitrogen K1219) were washed with assay media (97% OPTIMEM/0.5% dialyzed FBS/0.1 mM NEAA/1 mM Na pyr/P/S) and seeded in the same media at 5×10^5 cell/mL in T150 flask. After 16 hour incubation, cells were seeded at 2×10^5 cell/well in 50 μl volume, into Costar, clear bottom, 96-well assay plates. Serial dilutions of compounds were added to the plates with final DMSO concentration at 0.5% and GM-CSF at 2 ng/mL and the plates were then incubated at 30° C. and 5% CO2 for 4 hours. The plates were brought to room temperature before adding Substrate Mixture according to manufacturer's protocol (Invitrogen, Catalog #K1085). The assay plates containing the substrate mixture were incubated in the dark at room temperature for 2 hours. Blue and green fluorescence was measured with excitation at 409 nm and emission at 460 nm (for blue) and excitation at 409 nm and emission at 530 nm (for green) using Spectra Max Gemini EM.

JAK2 = biological target: T1, JAK2 (Homo sapiens, UniProt O60674); test: Competition binding assay to determine Kd against JAK kinases: JAK2
T1 construct: made in house
T1 sequence (O60674 whole entry): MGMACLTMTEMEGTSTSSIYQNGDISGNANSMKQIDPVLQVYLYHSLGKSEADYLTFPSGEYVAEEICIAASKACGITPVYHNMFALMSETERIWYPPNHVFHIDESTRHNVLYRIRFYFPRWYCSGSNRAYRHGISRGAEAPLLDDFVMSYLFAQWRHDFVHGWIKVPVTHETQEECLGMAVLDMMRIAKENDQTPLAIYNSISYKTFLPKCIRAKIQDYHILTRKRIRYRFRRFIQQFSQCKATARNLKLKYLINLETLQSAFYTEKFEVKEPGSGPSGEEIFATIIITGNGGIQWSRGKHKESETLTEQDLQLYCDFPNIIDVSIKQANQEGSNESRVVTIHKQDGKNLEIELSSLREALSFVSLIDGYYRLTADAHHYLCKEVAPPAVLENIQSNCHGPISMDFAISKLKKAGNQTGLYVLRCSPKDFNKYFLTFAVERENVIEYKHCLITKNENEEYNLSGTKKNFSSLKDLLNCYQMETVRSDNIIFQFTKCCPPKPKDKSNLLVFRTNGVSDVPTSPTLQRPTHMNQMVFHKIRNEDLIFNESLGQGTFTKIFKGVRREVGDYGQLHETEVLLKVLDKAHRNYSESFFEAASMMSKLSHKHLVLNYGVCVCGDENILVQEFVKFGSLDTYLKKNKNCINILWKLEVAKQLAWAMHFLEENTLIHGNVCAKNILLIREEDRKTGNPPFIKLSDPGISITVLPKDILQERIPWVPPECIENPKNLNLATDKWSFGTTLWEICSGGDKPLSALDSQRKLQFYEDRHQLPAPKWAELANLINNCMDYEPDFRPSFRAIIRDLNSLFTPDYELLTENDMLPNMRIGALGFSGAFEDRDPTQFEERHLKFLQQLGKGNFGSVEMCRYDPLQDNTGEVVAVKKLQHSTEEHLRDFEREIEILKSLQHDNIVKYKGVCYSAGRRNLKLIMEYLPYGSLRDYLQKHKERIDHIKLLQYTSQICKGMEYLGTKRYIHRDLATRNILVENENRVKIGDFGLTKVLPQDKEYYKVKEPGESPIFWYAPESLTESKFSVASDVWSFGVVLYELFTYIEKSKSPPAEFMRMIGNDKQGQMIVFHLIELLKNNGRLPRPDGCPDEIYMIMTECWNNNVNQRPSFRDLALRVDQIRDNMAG
Experimental: (§1) Competition binding assays used herein were developed, validated and performed as described in Fabian et al., Nature Biotechnology 2005, 23, 329-336. Kinases were produced as fusions to T7 phage (See, Fabian et al. or WO04/015142) or alternatively, the kinases were expressed in HEK-293 cells and subsequently tagged with DNA for PCR detection (See, WO08/005,310). For the binding assays, streptavidin-coated magnetic beads were treated with biotinylated affinity ligands for 30 min at rt to generate affinity resins. The liganded beads were blocked with excess biotin and washed with blocking buffer (SeaBlock (Pierce), 1% BSA, 0.05% Tween 20, 1 mM DTT) to remove unbound ligand and to reduce non-specific binding. Binding reactions were assembled by combining kinase, liganded affinity beads, and test compounds in 1× binding buffer (20% SeaBlock, 0.17×PBS, 0.05% Tween 20, 6 mM DTT). Test compounds were prepared as 100× stocks in DMSO and rapidly diluted into the aqueous environment. DMSO was added to control assays lacking a test compound. Primary screen interactions were performed in polypropylene 384-well plates in a final volume of 34 μL, while Kd determinations were performed in polystyrene 96-well plates in a final volume of 135 μL. The assay plates were incubated at room temperature with shaking for 1 hour, long enough for binding reactions to reach equilibrium, and the affinity beads were washed extensively with wash buffer (1×PBS, 0.05% Tween 20) to remove unbound protein. The beads were then resuspended in elution buffer (1×PBS, 0.05% Tween 20, 2 μM non-biotinylated affinity ligand) and incubated at room temperature with shaking for 30 min. The kinase concentration in the eluates was measured by quantitative PCR. Each kinase was tested individually against each compound. Kds were determined using eleven serial threefold dilutions. A selectivity score, which is a quantitative measure of selectivity of a compound against a panel of enzymes, may be calculated for a compound by dividing the number of enzymes for which a compound meets a set criteria, (for example, a binding constant of 100 nM or less), by the total number of enzymes tested.

JAK3 = biological target: T2, JAK3 (Homo sapiens, UniProt P52333); test: Competition binding assay to determine Kd against JAK kinases: JAK3
T2 construct: made in house
T2 sequence (P52333 1-1124): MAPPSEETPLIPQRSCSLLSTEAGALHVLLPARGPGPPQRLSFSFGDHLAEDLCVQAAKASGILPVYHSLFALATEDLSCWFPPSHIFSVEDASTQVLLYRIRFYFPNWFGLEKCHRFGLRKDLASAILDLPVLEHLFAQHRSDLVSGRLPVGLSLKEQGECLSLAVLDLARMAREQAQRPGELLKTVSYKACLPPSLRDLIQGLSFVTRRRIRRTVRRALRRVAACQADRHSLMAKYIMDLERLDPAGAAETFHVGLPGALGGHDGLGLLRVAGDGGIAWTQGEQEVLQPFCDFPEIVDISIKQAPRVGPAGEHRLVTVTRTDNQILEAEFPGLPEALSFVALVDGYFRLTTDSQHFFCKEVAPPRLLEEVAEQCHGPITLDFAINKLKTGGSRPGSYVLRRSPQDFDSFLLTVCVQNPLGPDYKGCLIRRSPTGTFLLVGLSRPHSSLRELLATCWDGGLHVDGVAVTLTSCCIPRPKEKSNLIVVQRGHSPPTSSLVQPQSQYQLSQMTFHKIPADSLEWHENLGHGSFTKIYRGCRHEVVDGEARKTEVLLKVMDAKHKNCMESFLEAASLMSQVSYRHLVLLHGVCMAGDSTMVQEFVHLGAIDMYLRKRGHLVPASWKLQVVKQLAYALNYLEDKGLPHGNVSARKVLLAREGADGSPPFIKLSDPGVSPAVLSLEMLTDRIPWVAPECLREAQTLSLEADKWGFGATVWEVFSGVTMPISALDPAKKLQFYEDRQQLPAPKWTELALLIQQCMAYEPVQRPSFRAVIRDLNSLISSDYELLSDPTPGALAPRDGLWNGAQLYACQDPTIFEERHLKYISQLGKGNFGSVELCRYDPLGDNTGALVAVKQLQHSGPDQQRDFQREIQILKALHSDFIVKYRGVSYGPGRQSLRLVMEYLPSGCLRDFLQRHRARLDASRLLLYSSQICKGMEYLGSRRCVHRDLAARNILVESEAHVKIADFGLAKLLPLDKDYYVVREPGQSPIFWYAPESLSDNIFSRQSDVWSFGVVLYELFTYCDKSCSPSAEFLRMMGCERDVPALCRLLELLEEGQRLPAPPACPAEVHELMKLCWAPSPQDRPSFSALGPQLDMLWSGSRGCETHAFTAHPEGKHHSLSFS
Experimental: as §1

TYK2 = biological target: T3, TYK2 (Homo sapiens, UniProt P29597); test: Competition binding assay to determine Kd against JAK kinases: TYK2
T3 construct: made in house
T3 sequence (P29597 whole entry): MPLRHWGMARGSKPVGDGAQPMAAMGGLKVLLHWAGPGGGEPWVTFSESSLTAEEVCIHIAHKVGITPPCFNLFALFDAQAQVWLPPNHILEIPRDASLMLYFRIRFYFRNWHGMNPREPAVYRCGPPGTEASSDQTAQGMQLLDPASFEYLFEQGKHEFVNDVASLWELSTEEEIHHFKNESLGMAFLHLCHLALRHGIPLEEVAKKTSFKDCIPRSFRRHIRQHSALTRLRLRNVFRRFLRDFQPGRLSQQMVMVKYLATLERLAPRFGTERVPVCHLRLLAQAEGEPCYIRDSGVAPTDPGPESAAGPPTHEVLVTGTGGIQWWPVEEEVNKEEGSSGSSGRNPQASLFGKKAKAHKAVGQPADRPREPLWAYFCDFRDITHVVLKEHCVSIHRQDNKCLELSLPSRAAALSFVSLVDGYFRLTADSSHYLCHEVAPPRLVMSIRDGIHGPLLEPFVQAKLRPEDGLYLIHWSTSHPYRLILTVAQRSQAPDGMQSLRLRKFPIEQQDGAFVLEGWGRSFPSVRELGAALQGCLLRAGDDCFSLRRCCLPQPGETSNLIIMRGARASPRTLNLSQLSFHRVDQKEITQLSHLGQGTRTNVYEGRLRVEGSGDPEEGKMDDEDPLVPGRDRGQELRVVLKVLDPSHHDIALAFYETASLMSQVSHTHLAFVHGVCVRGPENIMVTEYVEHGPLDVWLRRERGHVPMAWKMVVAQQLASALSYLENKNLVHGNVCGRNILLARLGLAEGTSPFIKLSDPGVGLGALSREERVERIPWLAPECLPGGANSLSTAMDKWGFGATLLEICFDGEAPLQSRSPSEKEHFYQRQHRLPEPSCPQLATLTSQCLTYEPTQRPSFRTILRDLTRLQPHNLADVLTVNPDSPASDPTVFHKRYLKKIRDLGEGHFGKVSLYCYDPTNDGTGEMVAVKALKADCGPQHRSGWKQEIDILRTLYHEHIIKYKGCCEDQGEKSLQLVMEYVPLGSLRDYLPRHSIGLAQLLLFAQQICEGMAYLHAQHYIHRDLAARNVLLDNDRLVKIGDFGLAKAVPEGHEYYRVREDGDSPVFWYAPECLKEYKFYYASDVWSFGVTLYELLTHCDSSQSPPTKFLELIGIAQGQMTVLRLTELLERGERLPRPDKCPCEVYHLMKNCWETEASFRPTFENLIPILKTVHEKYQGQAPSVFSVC
Experimental: as §1

[2] = tested on: panel of distinct kinases excluding mutant variants, typically 359 or 386 kinases; test: Kinase selectivity score S10 from competition binding panel; conditions: compound at 10 μM; fraction of kinases with inhibition of 90% or greater
Experimental: as §1

Cc1cc(Nc2nc(S(=O)(=O)c3ccc(F)cc3)cc3ccccc23)n[nH]1 [Example 10, 3-(4-fluorophenylsulfonyl)-N-(5-methyl-1H-pyrazol-3-yl)isoquinolin-1-amine]
IC50 [1]: ≤ 100 nM | Kd (JAK2): ≤ 5 nM | Kd (JAK3): ≤ 10 nM | Kd (TYK2): ≤ 10 nM | S-Score: S(10) at 10 μM [2]: D (D > 0.5)

Cc1coc(Nc2nc([S+]([O-])c3ccc(F)cc3)cc3ccccc23)n1 (racemic) [Example 22, (R,S)—N-(3-(4-fluorophenylsulfinyl)isoquinolin-1-yl)-4-methyloxazol-2-amine]
IC50 [1]: > 500 nM | Kd (JAK2): > 50 nM | Kd (JAK3): > 100 nM | S-Score: S(10) at 10 μM [2]: A (A ≦ 0.3)

[O-][S+](c1ccc(F)cc1)c1cc2ccccc2c(Nc2nccs2)n1 (stereo not shown) [Example 11, N-(3-(4-fluorophenylsulfinyl)isoquinolin-1-yl)thiazol-2-amine]
IC50 [1]: ≤ 100 nM | Kd (JAK2): ≤ 5 nM | Kd (JAK3): 10 to 100 nM | S-Score: S(10) at 10 μM [2]: A (A ≦ 0.3)

COc1cc(Nc2nc(S(=O)(=O)c3ccc(F)cc3)cc3ccccc23)n[nH]1 [Example 15, 3-(4-fluorophenylsulfonyl)-N-(5-methoxy-1H-pyrazol-3-yl)isoquinolin-1-amine]
IC50 [1]: ≤ 100 nM | Kd (JAK2): ≤ 5 nM | Kd (JAK3): ≤ 10 nM | Kd (TYK2): ≤ 10 nM | S-Score: S(10) at 10 μM [2]: D (D > 0.5)

CCn1cnc(Nc2nc(S(=O)(=O)c3ccc(F)cc3)cc3ccccc23)c1 [Example 25, N-(1-ethyl-1H-imidazol-4-yl)-3-((4-fluorophenyl)sulfonyl)isoquinolin-1-amine]
IC50 [1]: ≤ 100 nM | Kd (JAK2): ≤ 5 nM | Kd (JAK3): ≤ 10 nM | Kd (TYK2): ≤ 10 nM | S-Score: S(10) at 10 μM [2]: C (0.4 < C ≦ 0.5)

Cc1cc(Nc2nc(C(=O)c3ccc(F)cc3)cc3ccccc23)n[nH]1 [Example 1, (4-fluorophenyl)(1-(5-methyl-1H-pyrazol-3-ylamino)isoquinolin-3-yl)methanone]
IC50 [1]: 100 to 500 nM | Kd (JAK2): ≤ 5 nM | Kd (JAK3): 10 to 100 nM | Kd (TYK2): ≤ 10 nM | S-Score: S(10) at 10 μM [2]: A (A ≦ 0.3)

O=S(=O)(c1ccc(F)cc1)c1cc2ccccc2c(Nc2ncns2)n1 [Example 18, N-(3-(4-fluorophenylsulfonyl)isoquinolin-1-yl)-1,2,4-thiadiazol-5-amine]
IC50 [1]: 100 to 500 nM | Kd (JAK2): ≤ 5 nM | Kd (JAK3): 10 to 100 nM | Kd (TYK2): ≤ 10 nM | S-Score: S(10) at 10 μM [2]: B (0.3 < B ≦ 0.4)

Cn1cnc(Nc2nc(S(=O)(=O)c3ccc(F)cc3)cc3ccccc23)c1 [Example 20, 3-(4-fluorophenylsulfonyl)-N-(1-methyl-1H-imidazol-4-yl)isoquinolin-1-amine]
IC50 [1]: ≤ 100 nM | Kd (JAK2): ≤ 5 nM | Kd (JAK3): ≤ 10 nM | Kd (TYK2): ≤ 10 nM | S-Score: S(10) at 10 μM [2]: C (0.4 < C ≦ 0.5)

Cc1cc(Nc2nc(S(=O)(=O)c3ccc(F)cc3)cc3c(Br)cccc23)n[nH]1 [Example 26, 5-bromo-3-((4-fluorophenyl)sulfonyl)-N-(5-methyl-1H-pyrazol-3-yl)isoquinolin-1-amine]
IC50 [1]: ≤ 100 nM | Kd (JAK2): ≤ 5 nM | Kd (JAK3): ≤ 10 nM | Kd (TYK2): ≤ 10 nM | S-Score: S(10) at 10 μM [2]: A (A ≦ 0.3)

O=S(=O)(c1ccc(F)cc1)c1cc2ccccc2c(Nc2nccs2)n1 [Example 17, N-(3-(4-fluorophenylsulfonyl)isoquinolin-1-yl)thiazol-2-amine]
IC50 [1]: 100 to 500 nM | Kd (JAK2): ≤ 5 nM | Kd (JAK3): 10 to 100 nM | Kd (TYK2): 10 to 100 nM | S-Score: S(10) at 10 μM [2]: A (A ≦ 0.3)

O=S(=O)(c1ccc(F)cc1)c1cc2ccccc2c(Nc2cc[nH]n2)n1 [Example 14, 3-(4-fluorophenylsulfonyl)-N-(1H-pyrazol-3-yl)isoquinolin-1-amine]
IC50 [1]: ≤ 100 nM | Kd (JAK2): ≤ 5 nM | Kd (JAK3): ≤ 10 nM | Kd (TYK2): ≤ 10 nM | S-Score: S(10) at 10 μM [2]: B (0.3 < B ≦ 0.4)

O=S(=O)(c1ccc(F)cc1)c1cc2ccccc2c(Nc2cc(O)[nH]n2)n1 [Example 19, 3-(3-(4-fluorophenylsulfonyl)isoquinolin-1-ylamino)-1H-pyrazol-5-ol]
IC50 [1]: > 500 nM | Kd (JAK2): 5 to 50 nM | Kd (JAK3): > 100 nM | Kd (TYK2): 10 to 100 nM | S-Score: S(10) at 10 μM [2]: A (A ≦ 0.3)

[2H]C([2H])([2H])n1cnc(Nc2nc(S(=O)(=O)c3ccc(F)cc3)cc3ccccc23)c1 [Example 24, 3-((4-fluorophenyl)sulfonyl)-N-(1-methyl-d3-1H-imidazol-4-yl)isoquinolin-1-amine]
IC50 [1]: ≤ 100 nM | Kd (JAK2): ≤ 5 nM | Kd (JAK3): ≤ 10 nM | Kd (TYK2): ≤ 10 nM | S-Score: S(10) at 10 μM [2]: B (0.3 < B ≦ 0.4)

Cc1cc(Nc2nc([S+]([O-])c3ccc(F)cc3)cc3ccccc23)n[nH]1 (stereo not shown) [Example 13, 3-(4-fluorophenylsulfinyl)-N-(5-methyl-1H-pyrazol-3-yl)isoquinolin-1-amine]
IC50 [1]: ≤ 100 nM | Kd (JAK2): ≤ 5 nM | Kd (JAK3): ≤ 10 nM | Kd (TYK2): ≤ 10 nM | S-Score: S(10) at 10 μM [2]: D (D > 0.5)

Cc1cnc(Nc2nc([S+]([O-])c3ccc(F)cc3)cc3ccccc23)s1 (stereo not shown) [Example 12, N-(3-(4-fluorophenylsulfinyl)isoquinolin-1-yl)-5-methylthiazol-2-amine]
IC50 [1]: ≤ 100 nM | Kd (JAK2): ≤ 5 nM | Kd (JAK3): 10 to 100 nM | Kd (TYK2): ≤ 10 nM | S-Score: S(10) at 10 μM [2]: C (0.4 < C ≦ 0.5)

O=S(=O)(c1ccc(F)cc1)c1cc2ccccc2c(Nc2ncco2)n1 [Example 23, N-(3-(4-fluorophenylsulfonyl)isoquinolin-1-yl)oxazol-2-amine]
IC50 [1]: > 500 nM | Kd (JAK2): > 50 nM | Kd (JAK3): > 100 nM | Kd (TYK2): > 100 nM | S-Score: S(10) at 10 μM [2]: A (A ≦ 0.3)

Cc1cc(Nc2nc(C(O)c3ccc(F)cc3)cc3ccccc23)n[nH]1 (racemic) [Example 2, (R,S)-(4-fluorophenyl)(1-(5-methyl-1H-pyrazol-3-ylamino)isoquinolin-3-yl)methanol]
IC50 [1]: ≤ 100 nM | Kd (JAK2): ≤ 5 nM | Kd (JAK3): ≤ 10 nM | Kd (TYK2): ≤ 10 nM
